In patent US7285556B2, “Thienopyrimidine-based inhibitors of the src family” (Board of Regents, The University of Texas Systems, priority 2000, dated 2007) one finds IC50 data, which are given here for 31 molecules.

Read-outs that look alike come from different tables or passages of the source.

The target of the experiment is T1, Recombinant human Src (Homo sapiens, UniProt P12931).
T1 construct: made in house; host or cells: baculovirus-insect cell system
In words: Src tyrosine kinase activity, poly E4Y and 32P-ATP. In kind it is biochemical. As for the experimental part: Recombinant human Src was expressed using the baculovirus-insect cell system and purified as published (Budde et al., 1993 and 2000). Recombinant Csk and the FGF receptor (FGFr) were expressed as glutathione-S-transferase fusion proteins using the pGEX expression vector and E. coli, and purified as described (Sun & Budde, 1995).
The tyrosine kinase activity of Src, Csk and FGFr was determined using poly E4Y and ^32P-ATP. Briefly, enzymes were assayed in a reaction mixture consisting of 0.15 M EPPS-NaOH (pH 8.0) with 6 mM MgCl2, 0.2 mM γ^32P-ATP (0.2-0.4 mCi/μmol), 10% glycerol, 0.1% Triton X-100, and poly E4Y. Poly E4Y is a synthetic peptide whose phosphorylation is measured in this assay by the addition of the radioactively labeled phosphate from the ATP (Budde et al., 1995). […] When ATP was varied (0, 50, 100 and 250 μM), poly E4Y was kept constant at 150 μg/ml.

[1] abbreviates: Table 2, read-out: Src IC50 (especially good inhibitors of Src).
[2] abbreviates: read-out: IC50 (preferred compounds for treatment of Src family-related disease).

T1 sequence (P12931 whole entry): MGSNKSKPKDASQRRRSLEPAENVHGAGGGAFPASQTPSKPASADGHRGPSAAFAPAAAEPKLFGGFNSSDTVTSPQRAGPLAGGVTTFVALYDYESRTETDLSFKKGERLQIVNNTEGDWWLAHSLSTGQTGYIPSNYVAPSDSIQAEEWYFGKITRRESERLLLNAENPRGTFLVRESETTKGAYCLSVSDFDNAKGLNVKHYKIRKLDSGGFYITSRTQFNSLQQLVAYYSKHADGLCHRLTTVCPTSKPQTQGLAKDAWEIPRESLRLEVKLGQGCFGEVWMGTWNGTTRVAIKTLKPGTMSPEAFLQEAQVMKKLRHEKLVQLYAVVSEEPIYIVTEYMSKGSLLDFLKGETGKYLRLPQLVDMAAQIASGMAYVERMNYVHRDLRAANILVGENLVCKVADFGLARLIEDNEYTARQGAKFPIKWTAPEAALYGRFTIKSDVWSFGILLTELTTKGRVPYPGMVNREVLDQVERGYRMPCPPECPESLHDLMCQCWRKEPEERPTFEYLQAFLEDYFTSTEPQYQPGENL

By IC50 is commonly meant the concentration that gives 50% inhibition. In the case of `Cc1c(C(=O)O)sc2c(NN=Cc3cccnc3)ncnc12` [Compound 465, 3-Pyridinecarboxaldehyde(6-carboxy-7-methylthieno[3,2-d]pyrimidin-4-yl)hydrazone], the IC50 is not above 2000 nM under setting [1] and less than 2000 nM under setting [2].
Taken in the same sequence, the figures for `Cc1c(C(O)c2cccs2)sc2c(NN=Cc3cccs3)ncnc12` (centres unmarked) [Compound 489, 2-Thiophenecarboxaldehyde(6-(1-hydroxy-1-[2-thienyl])methyl-7-methylthieno[3,2-d]pyrimidin-4-yl)hydrazone] were not above 2000 nM and less than 2000 nM.
In the same order, the values of `Cc1c(-c2cccc(CO)c2)sc2c(NN=Cc3ccc(C(=O)O)cc3)ncnc12` [Compound 441, 4-Carboxybenzaldehyde(6-(3-hydroxymethylphenyl)-7-methylthieno[3,2-d]pyrimidin-4-yl)hydrazone] are not above 2000 nM and less than 2000 nM.
With `Cc1c(-c2ccc(C(=O)O)cc2)sc2c(NN=Cc3cccs3)ncnc12` [Compound 455, 2-Thiophenecarboxaldehyde(6-(4-carboxyphenyl)-7-methylthieno[3,2-d]pyrimidin-4-yl)hydrazone], the IC50 under setting [1] was not above 2000 nM and the IC50 under setting [2] was less than 2000 nM.
Taken in the same sequence, the figures for `COc1ccc(C=NNc2ncnc3c(C)c(C(O)c4cccnc4)sc23)cc1O` (centres unmarked) [Compound 486, 3-Hydroxy-4-methoxybenzaldehyde(6-(1-hydroxy-1-[3-pyridyl])methyl-7-methylthieno[3,2-d]pyrimidin-4-yl)hydrazone] were not above 2000 nM and less than 2000 nM.
Taken in the same sequence, the figures for `COc1ccc(C=NNc2ncnc3c(C)c(C(O)c4ccccc4)sc23)cc1O` (centres unmarked) [Compound 460, 3-Hydroxy-4-methoxybenzaldehyde(6-(1-hydroxy-1-phenyl)methyl-7-methylthieno[3,2-d]pyrimidin-4-yl)hydrazone] were not above 2000 nM and less than 2000 nM.
In the same order, the values of `Cc1c(C(Cc2ccccc2)c2ccccc2)sc2c(NN=Cc3cccs3)ncnc12` (centres unmarked) [Compound 474, 2-Thiophenecarboxaldehyde(6-(1-benzyl-1-phenyl)methyl-7-methylthieno[3,2-d]pyrimidin-4-yl)hydrazone] are not above 2000 nM and less than 2000 nM.
In the case of `Cc1c(-c2ccc(C(=O)O)cc2)sc2c(NN=Cc3cccnc3)ncnc12` [Compound 453, 3-Pyridinecarboxaldehyde(6-(4-carboxyphenyl)-7-methylthieno[3,2-d]pyrimidin-4-yl)hydrazone], the IC50 by setting is: under setting [1], not above 2000 nM; under setting [2], less than 2000 nM.
`Cc1csc2c(NN=Cc3ccc(O)c([N+](=O)[O-])c3)ncnc12` [Compound 49, 4-Hydroxy-3-nitrobenzaldehyde(7-methylthieno[3,2-d]pyrimidin-4-yl)hydrazone]: the IC50 reads like this: under setting [1], not above 2000 nM; under setting [2], less than 2000 nM.
In the same order, the values of `O=C(O)c1ccc(C=NNc2ncnc3cc(-c4ccc(F)cc4)sc23)cc1` [Compound 280, 4-Carboxybenzaldehyde(6-(4-fluorophenyl)thieno[3,2-d]pyrimidin-4-yl)hydrazone] are not above 2000 nM and less than 2000 nM.
In the same order, the values of `Cc1c(C(O)c2ccccc2)sc2c(NN=Cc3cccnc3)ncnc12` (centres unmarked) [Compound 457, 3-Pyridinecarboxaldehyde(6-(1-hydroxy-1-phenyl)methyl-7-methylthieno[3,2-d]pyrimidin-4-yl)hydrazone] are not above 2000 nM and less than 2000 nM.
Taken in the same sequence, the figures for `Cc1c(C(O)c2ccsc2)sc2c(NN=Cc3cccs3)ncnc12` (centres unmarked) [Compound 463, 2-Thiophenecarboxaldehyde(6-(1-hydroxy-1-[3-thienyl])methyl-7-methylthieno[3,2-d]pyrimidin-4-yl)hydrazone] were not above 2000 nM and less than 2000 nM.
In the case of `Cc1c(I)sc2c(NN=Cc3ccc(C(=O)O)cc3)ncnc12` [Compound 373, 4-Carboxybenzaldehyde(6-iodo-7-methylthieno[3,2-d]pyrimidin-4-yl)hydrazone], the IC50 is, setting by setting: under setting [1], not above 2000 nM; under setting [2], less than 2000 nM.
In the same order, the values of `O=C(O)c1ccc(C=NNc2ncnc3cc(-c4cccc(Cl)c4)sc23)cc1` [Compound 305, 4-Carboxybenzaldehyde(6-(3-chlorophenyl)thieno[3,2-d]pyrimidin-4-yl)hydrazone] are not above 2000 nM and less than 2000 nM.
On to `Cc1c(C(O)c2cccnc2)sc2c(NN=Cc3cccs3)ncnc12` (centres unmarked) [Compound 485, 2-Thiophenecarboxaldehyde(6-(1-hydroxy-1-[3-pyridyl])methyl-7-methylthieno[3,2-d]pyrimidin-4-yl)hydrazone], for which the IC50 under setting [1] was not above 2000 nM and the IC50 under setting [2] is less than 2000 nM.
In the same order, the values of `Cc1c(-c2ccccc2)sc2c(NN=Cc3cccnc3)ncnc12` [Compound 359, 3-Pyridinecarboxaldehyde(7-methyl-6-phenylthieno[3,2-d]pyrimidin-4-yl)hydrazone] are not above 2000 nM and less than 2000 nM.
Taken in the same sequence, the figures for `COc1ccc(C=NNc2ncnc3c(C)c(C(O)C4CCCCC4)sc23)cc1O` (centres unmarked) [Compound 472, 3-Hydroxy-4-methoxybenzaldehyde(6-(1-cyclohexyl-1-hydroxy)methyl-7-methylthieno[3,2-d]pyrimidin-4-yl)hydrazone] were not above 2000 nM and less than 2000 nM.
In the same order, the values of `Cc1c(C(O)c2ccccc2)sc2c(NN=Cc3cccs3)ncnc12` (centres unmarked) [Compound 459, 2-Thiophenecarboxaldehyde(6-(1-hydroxy-1-phenyl)methyl-7-methylthieno[3,2-d]pyrimidin-4-yl)hydrazone] are not above 2000 nM and less than 2000 nM.
`Cc1c(-c2ccsc2)sc2c(NN=Cc3ccc(C(=O)O)cc3)ncnc12` [Compound 380, 4-Carboxybenzaldehyde(7-methyl-6-(3-thienyl)thieno[3,2-d]pyrimidin-4-yl)hydrazone]: the IC50 under setting [1] is not above 2000 nM and the IC50 under setting [2] was less than 2000 nM.
On to `Cc1c(-c2ccccc2)sc2c(NN=Cc3ccc(C(=O)O)cc3)ncnc12` [Compound 360, 4-Carboxybenzaldehyde(7-methyl-6-phenylthieno[3,2-d]pyrimidin-4-yl)hydrazone], for which the IC50 was not above 2000 nM under setting [1] and less than 2000 nM under setting [2].
In the same order, the values of `Cc1c(C(O)C2CCCCC2)sc2c(NN=Cc3cccs3)ncnc12` (centres unmarked) [Compound 471, 2-Thiophenecarboxaldehyde(6-(1-cyclohexyl-1-hydroxy)methyl-7-methylthieno[3,2-d]pyrimidin-4-yl)hydrazone] are not above 2000 nM and less than 2000 nM.
In the same order, the values of `O=C(O)c1ccc(C=NNc2ncnc3c2sc2ncccc23)cc1` [Compound 245, 4-Carboxybenzaldehyde(pyrido[3′,2′:4,5]thieno[3,2-d]pyrimidin-4-yl)hydrazone] are not above 2000 nM and less than 2000 nM.
In the same order, the values of `COc1ccccc1-c1sc2c(NN=Cc3ccc(C(=O)O)cc3)ncnc2c1C` [Compound 433, 4-Carboxybenzaldehyde(6-(2-methoxyphenyl)-7-methylthieno[3,2-d]pyrimidin-4-yl)hydrazone] are not above 2000 nM and less than 2000 nM.
As for `Cc1csc2c(NN=CC3CC3)ncnc12` [Compound 178, Cyclopropanecarboxaldehyde(7-methylthieno[3,2-d]pyrimidin-4-yl)hydrazone], the IC50 is, setting by setting: under setting [1], not above 2000 nM; under setting [2], less than 2000 nM.
On to `COc1ccc(C=NNc2ncnc3c(C)c(-c4ccccc4OC)sc23)cc1O` [Compound 435, 3-Hydroxy-4-methoxybenzaldehyde(6-(2-methoxyphenyl)-7-methylthieno[3,2-d]pyrimidin-4-yl)hydrazone], for which the IC50 reads like this: under setting [1], not above 2000 nM; under setting [2], less than 2000 nM.
Taken in the same sequence, the figures for `Cc1c(CO)sc2c(NN=Cc3ccc(C(=O)O)cc3)ncnc12` [Compound 477, 4-Carboxybenzaldehyde(6-hydroxymethyl-7-methylthieno[3,2-d]pyrimidin-4-yl)hydrazone] were not above 2000 nM and less than 2000 nM.
Taken in the same sequence, the figures for `Cc1c(C(O)C2CCCCC2)sc2c(NN=Cc3cccnc3)ncnc12` (centres unmarked) [Compound 469, 3-Pyridinecarboxaldehyde(6-(1-cyclohexyl-1-hydroxy)methyl-7-methylthieno[3,2-d]pyrimidin-4-yl)hydrazone] were not above 2000 nM and less than 2000 nM.
Taken in the same sequence, the figures for `COc1cccc(-c2sc3c(NN=Cc4ccc(C(=O)O)cc4)ncnc3c2C)c1` [Compound 427, 4-Carboxybenzaldehyde(6-(3-methoxyphenyl)-7-methylthieno[3,2-d]pyrimidin-4-yl)hydrazone] were not above 2000 nM and less than 2000 nM.
`COc1ccc(C=NNc2ncnc3c(C)c(C(=O)O)sc23)cc1O` [Compound 468, 3-Hydroxy-4-methoxybenzaldehyde(6-carboxy-7-methylthieno[3,2-d]pyrimidin-4-yl)hydrazone]: the IC50 reads like this: under setting [1], not above 2000 nM; under setting [2], less than 2000 nM.
`Cc1c(-c2ccccc2Cl)sc2c(NN=Cc3ccc(C(=O)O)cc3)ncnc12` [Compound 390, 4-Carboxybenzaldehyde(6-(2-chlorophenyl)7-methylthieno[3,2-d]pyrimidin-4-yl)hydrazone]: the IC50 is not above 2000 nM under setting [1] and less than 2000 nM under setting [2].
With `Cc1c(C(O)c2cccs2)sc2c(NN=Cc3ccc(C(=O)O)cc3)ncnc12` (centres unmarked) [Compound 488, 4-Carboxybenzaldehyde(6-(1-hydroxy-1-[2-thienyl])methyl-7-methylthieno[3,2-d]pyrimidin-4-yl)hydrazone], the IC50 under setting [1] is not above 2000 nM and the IC50 under setting [2] is less than 2000 nM.
